Data from ChEMBL document CHEMBL1201862, “PubChem BioAssay data set” (2004).
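Following 48 hours of exposure in 96-well plates, responses at five concentrations were used to interpolate endpoints linearly. GI50: concentration for 50% inhibition of growth.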 Active and inactive are the calls of the source. No stated cut-off is given here; in the data, active = GI50 up to about 1.1 µM and inactive = higher. Non-standard residues stand in square brackets, D forms with d. Residues, ends and D or L forms follow the SMILES beside them. ξ: configuration not given here. *: point of attachment. dThr(3ξ) = CC(O)[C@@H](N)C(=O)O; dNMeL = CN[C@H](CC(C)C)C(=O)O; OBn = c1ccc(CO*)cc1; ξLac = CC(O)C(=O)O

Assays:
Assay in all cases: NCI-60 cell line screen, 48 h
ACHN = system: ACHN
CAKI-1 = system: CAKI-1
DU-145 = system: DU-145
HCC 2998 = system: HCC 2998
HCT-15 = system: HCT-15
HOP-92 = system: HOP-92
IGROV-1 = system: IGROV-1
MDA-MB-231 = system: MDA-MB-231
MDA-MB-435 = system: MDA-MB-435
Malme-3M = system: Malme-3M
NCI-H460 = system: NCI-H460
OVCAR-5 = system: OVCAR-5
RXF 393 = system: RXF 393
SF-539 = system: SF-539
SK-OV-3 = system: SK-OV-3
SNB-19 = system: SNB-19
SNB-75 = system: SNB-75
T47D = system: T47D
U-251 = system: U-251
UO-31 = system: UO-31

| Structure (SMILES) | GI50 (ACHN) | GI50 (CAKI-1) | GI50 (DU-145) | GI50 (HCC 2998) | GI50 (HCT-15) | GI50 (HOP-92) | GI50 (IGROV-1) | GI50 (MDA-MB-231) | GI50 (MDA-MB-435) | GI50 (Malme-3M) | GI50 (NCI-H460) | GI50 (OVCAR-5) | GI50 (RXF 393) | GI50 (SF-539) | GI50 (SK-OV-3) | GI50 (SNB-19) | GI50 (SNB-75) | GI50 (T47D) | GI50 (U-251) | GI50 (UO-31) |
| --- | --- | --- | --- | --- | --- | --- | --- | --- | --- | --- | --- | --- | --- | --- | --- | --- | --- | --- | --- | --- |
| COc1cc(/C=C2/C[C@H]3[C@@H]4CC=C5C[C@@H](OC(C)=O)CC[C@]5(C)[C@H]4CC[C@]3(C)NC2=O)cc(OC)c1OC | 19.1 µM (inactive) | 29.5 µM (inactive) | 20.8 µM (inactive) | 43.4 µM (inactive) | 32.7 µM | 24.6 µM (inactive) | 30 µM (inactive) | 22 µM (inactive) | 36.3 µM (inactive) | 25.6 µM (inactive) | 32.7 µM (inactive) | 27 µM (inactive) | 17.3 µM (inactive) | 13.1 µM (inactive) | 25.3 µM (inactive) | 15.9 µM (inactive) | 22.5 µM (inactive) | 22 µM (inactive) | 19.5 µM (inactive) | 18.1 µM (inactive) |
| O=C1C(Br)=CC2(C=C1Br)CCNC1=C2C(=O)c2ncccc2C1=O | 0.56 µM (active) | 1.61 µM (inactive) | 1.68 µM (inactive) | 1.98 µM (inactive) | 0.618 µM | 1.82 µM (inactive) | 0.54 µM (active) | 1.75 µM (inactive) | 0.189 µM (active) | 1.09 µM (active) | 0.308 µM (active) | 1.67 µM (inactive) | 1 µM (active) | 0.318 µM (active) | 2.03 µM (inactive) | 1.28 µM (inactive) | 1.4 µM (inactive) | 1.97 µM (inactive) | 1.31 µM (inactive) | 1.07 µM (active) |
| Cc1cc(C)n(CC(Cn2nc(C)cc2C)=C(/C(Cl)=C(/Cl)Nc2ccc([N+](=O)[O-])cc2)[N+](=O)[O-])n1 | 3.25 µM (inactive) | 1.81 µM (inactive) | 4.03 µM (inactive) | 3.52 µM (inactive) | 4.73 µM | 2.47 µM (inactive) | 2.62 µM (inactive) | 6.05 µM (inactive) | 1.84 µM (inactive) | 3.61 µM (inactive) | 3.33 µM (inactive) | 7.78 µM (inactive) | 3.59 µM (inactive) | 3.52 µM (inactive) | 3.37 µM (inactive) | 4.49 µM (inactive) | 4.67 µM (inactive) | 3.33 µM (inactive) | 3.53 µM (inactive) | 2.74 µM (inactive) |
| CC(=O)c1cccc(NC2C(N)C(NC(=O)N(C)C)(C(C)O)C(C)(O)C2(O)COC(=O)c2c(C)cccc2O)c1 (stereo not given) | < 0.001 µM (active) | < 0.001 µM (active) | < 0.001 µM (active) | < 0.001 µM (active) | 0.00296 µM | < 0.001 µM (active) | < 0.001 µM (active) | 0.00187 µM (active) | < 0.001 µM (active) | < 0.001 µM (active) | < 0.001 µM (active) | < 0.001 µM (active) | < 0.001 µM (active) | < 0.001 µM (active) | < 0.001 µM (active) | < 0.001 µM (active) | 0.0948 µM (active) | < 0.001 µM (active) | < 0.001 µM (active) | 0.00191 µM (active) |
| Nc1ccc(-c2nc3cc(F)ccc3s2)cc1I | 5.36 µM (inactive) | 15.6 µM (inactive) | 43.7 µM (inactive) | < 0.01 µM (active) | 1.34 µM | 17.3 µM (inactive) | < 0.01 µM (active) | 13.6 µM (inactive) | > 80.9 µM (inactive) | 26.1 µM (inactive) | 0.0276 µM (active) | 0.274 µM (active) | 15 µM (inactive) | 15.6 µM (inactive) | 14.4 µM (inactive) | 21.1 µM (inactive) | 16.1 µM (inactive) | 0.0658 µM (active) | 13.9 µM (inactive) | 16.1 µM (inactive) |
| CCCCC(=O)Nc1ccc2cc(C(=O)OC)c(Cl)nc2n1 | > 100 µM (inactive) | > 60.7 µM (inactive) | 3.11 µM (inactive) | 10.9 µM (inactive) | > 100 µM | > 100 µM (inactive) | > 100 µM (inactive) | > 100 µM (inactive) | > 100 µM (inactive) | > 100 µM (inactive) | 44.2 µM (inactive) | > 100 µM (inactive) | > 100 µM (inactive) | > 100 µM (inactive) | > 100 µM (inactive) | 16.5 µM (inactive) | > 100 µM (inactive) | 7.89 µM (inactive) | 28.6 µM (inactive) | 19.9 µM (inactive) |
| CC(=O)OC(C)[C@@H](NC(=O)[C@@H](CC(C)C)N(C)C(=O)[C@@H]1CCCN1C(=O)C(C)O)C(=O)OCc1ccccc1 (stereo not given in full) (H-[ξLac]P[dNMeL][dThr(3ξ)](Ac)-OBn) | > 100 µM (inactive) | > 100 µM (inactive) | > 100 µM (inactive) | > 100 µM (inactive) | > 100 µM | > 100 µM (inactive) | > 100 µM (inactive) | > 100 µM (inactive) | > 100 µM (inactive) | > 100 µM (inactive) | > 100 µM (inactive) | > 100 µM (inactive) | > 100 µM (inactive) | > 100 µM (inactive) | > 100 µM (inactive) | > 100 µM (inactive) | 81.7 µM (inactive) | > 100 µM (inactive) | > 100 µM (inactive) | > 100 µM (inactive) |
| COc1cc2[nH]c(=O)c3cc(-c4ccccc4)cc4c(Cl)nc(c1OC)c2c43 | 15.6 µM (inactive) | 24.4 µM (inactive) | 23.6 µM (inactive) | 23.6 µM (inactive) | 9.55 µM | 41.8 µM (inactive) | 19.1 µM (inactive) | 3.64 µM (inactive) | 2.81 µM (inactive) | 6.32 µM (inactive) | 21 µM (inactive) | 49.4 µM (inactive) | 23.3 µM (inactive) | 0.63 µM (active) | > 47.8 µM (inactive) | 28.1 µM (inactive) | > 39.4 µM (inactive) | 24.4 µM (inactive) | 16.4 µM (inactive) | 19.2 µM (inactive) |
| Cc1n[nH]c(=O)n1/N=C/c1c[nH]c2ccccc12 | > 100 µM (inactive) | > 100 µM (inactive) | > 100 µM (inactive) | > 100 µM (inactive) | > 100 µM | > 100 µM (inactive) | 35.2 µM (inactive) | > 100 µM (inactive) | > 100 µM (inactive) | > 100 µM (inactive) | > 100 µM (inactive) | 83.4 µM (inactive) | 20.9 µM (inactive) | > 100 µM (inactive) | > 100 µM (inactive) | > 100 µM (inactive) | 32.9 µM (inactive) | > 100 µM (inactive) | > 100 µM (inactive) | > 100 µM (inactive) |
